Data: the OligoGym collection
HELM strings list units from the 5' end as sugar, base in round brackets, then linkage (d deoxyribose, r ribose, m 2'-O-methyl, p phosphodiester). Strings are as the collection lists them; they lack the last nucleoside at the 3' end of the tested compound. [moe] = 2'-O-(2-methoxyethyl) (MOE); [sp] = phosphorothioate linkage; [m5C] = 5-methylcytosine

Molecular target: ATXN2
Experiment: mouse, dose not given
Details: ASO

RNA1{[moe](T)[sp].[moe](T)p.[moe](T)p.[moe](T)p.[moe](G)p.d(A)[sp].d(A)[sp].d(T)[sp].d(T)[sp].d(A)[sp].d([m5C])[sp].d(A)[sp].d(A)[sp].d(T)[sp].d(G)[sp].[moe]([m5C])p.[moe](G)p.[moe](G)[sp].[moe](T)}$$$$ (last 3' nucleoside missing)
3 h FOB score: 2 score 0-7

RNA1{[moe](T)[sp].[moe](T)p.[moe](A)p.[moe](A)p.[moe]([m5C])p.d(A)[sp].d([m5C])[sp].d(T)[sp].d(T)[sp].d(T)[sp].d(A)[sp].d([m5C])[sp].d(T)[sp].d([m5C])[sp].d(A)[sp].[moe]([m5C])p.[moe](T)p.[moe](G)[sp].[moe]([m5C])}$$$$ (last 3' nucleoside missing)
3 h FOB score: 4.5 score 0-7

RNA1{[moe](T)[sp].[moe](T)p.[moe]([m5C])p.[moe](T)p.d([m5C])[sp].d(T)[sp].d(A)[sp].d(T)[sp].d(T)[sp].d(T)[sp].d([m5C])[sp].d(T)[sp].d(T)[sp].d(T)[sp].[moe](G)p.[moe](T)p.[moe]([m5C])p.[moe]([m5C])[sp].[moe](A)}$$$$ (last 3' nucleoside missing)
3 h FOB score: 4 score 0-7

RNA1{[moe]([m5C])[sp].[moe](T)p.[moe](G)p.[moe](G)p.[moe](A)p.d(T)[sp].d(T)[sp].d([m5C])[sp].d(T)[sp].d(G)[sp].d(T)[sp].d(A)[sp].d([m5C])[sp].d(T)[sp].d(T)[sp].[moe](T)p.[moe](T)p.[moe]([m5C])[sp].[moe](T)}$$$$ (last 3' nucleoside missing)
3 h FOB score: 5.25 score 0-7

RNA1{[moe]([m5C])[sp].[moe](T)p.[moe](G)p.[moe](T)p.[moe](A)[sp].d([m5C])[sp].d(T)[sp].d(T)[sp].d(T)[sp].d(T)[sp].d([m5C])[sp].d(T)[sp].d([m5C])[sp].[moe](A)p.[moe](T)p.[moe](G)[sp].[moe](T)}$$$$ (last 3' nucleoside missing)
3 h FOB score: 3.5 score 0-7

RNA1{[moe]([m5C])[sp].[moe](A)p.[moe](T)p.[moe](A)p.[moe]([m5C])p.d(G)[sp].d([m5C])[sp].d(G)[sp].d(G)[sp].d(T)[sp].d(G)[sp].d(A)[sp].d(A)[sp].d(T)[sp].d(T)[sp].[moe]([m5C])p.[moe](T)p.[moe](G)[sp].[moe](T)}$$$$ (last 3' nucleoside missing)
3 h FOB score: 4 score 0-7

RNA1{[moe](T)[sp].[moe](G)p.[moe](T)p.[moe](A)p.[moe]([m5C])p.[moe](T)p.d(T)[sp].d([m5C])[sp].d(A)[sp].d([m5C])[sp].d(A)[sp].d(T)[sp].d(T)[sp].d(T)[sp].d(G)[sp].d(G)[sp].[moe](A)p.[moe](G)[sp].[moe]([m5C])}$$$$ (last 3' nucleoside missing)
3 h FOB score: 2.5 score 0-7

RNA1{[moe]([m5C])[sp].[moe](A)p.[moe]([m5C])p.[moe](A)p.[moe]([m5C])p.d(A)[sp].d([m5C])[sp].d(T)[sp].d(T)[sp].d(T)[sp].d(A)[sp].d(A)[sp].d(A)[sp].d(T)[sp].d(A)[sp].[moe]([m5C])p.[moe](A)p.[moe](G)[sp].[moe](G)}$$$$ (last 3' nucleoside missing)
3 h FOB score: 6.5 score 0-7

RNA1{[moe]([m5C])[sp].[moe]([m5C])[sp].[moe]([m5C])[sp].[moe](A)[sp].[moe](T)[sp].d(A)[sp].d([m5C])[sp].d(G)[sp].d([m5C])[sp].d(G)[sp].d(G)[sp].d(T)[sp].d(G)[sp].d(A)[sp].d(A)[sp].[moe](T)[sp].[moe](T)[sp].[moe]([m5C])[sp].[moe](T)}$$$$ (last 3' nucleoside missing)
3 h FOB score: 7 score 0-7

RNA1{[moe](A)[sp].[moe](A)p.[moe](T)p.[moe](A)p.[moe](T)p.d(T)[sp].d([m5C])[sp].d([m5C])[sp].d(A)[sp].d(T)[sp].d(A)[sp].d([m5C])[sp].d(A)[sp].d(G)[sp].d(A)[sp].[moe](T)p.[moe]([m5C])p.[moe](G)[sp].[moe]([m5C])}$$$$ (last 3' nucleoside missing)
3 h FOB score: 2.5 score 0-7
